Laboratory results taken from patent publication US20160346313A1, “USES OF OLIGOURONATES IN CANCER TREATMENT” (NORWEGIAN UNIVERSITY OF SCIENCE AND TECHNOLOGY, priority 2013, published 2016).

Tested on: Capan-2 human pancreas tumour xenograft
Test: Capan-2 human pancreas tumour xenograft model: tumour weight, with statistical analysis (ANOVA by day, Eav, log scale, exponential growth model)
Assay type: in vivo, Female Athymic Nude mice
Conditions: for Tumour weight, Difference vs Vehicle / Tumour weight, Estimate: Q3Dx4, G-Block IV, gemcitabine IP; for Estimate (mg), tumour weight geometric mean / Ratio vs Vehicle: Gemcitabine 5
Experimental: Efficacy was assessed by comparison of tumour weights of treated groups with the vehicle control group on Day 11 and 74 and between combination groups and their respective single agents on Day 11 and 74.
G-Block (Lot #PolyG 230712-Dp10, 95%G) was received as a white hygroscopic amorphous powder from NTNU Technology Transfer AS (Trondheim, Norway) and stored desiccated at room temperature until use. NTNU's G-Block was dissolved in MilliQ water to a concentration of 70 mg/ml to be used as the stock solution. This solution was used to deliver a dose of approximately 560 mg/kg in a 200 μl fixed dose. The 70 mg/ml solution was then diluted in 0.9% 150 mM NaCl (B. Braun Medical; Irvine, Calif.) to deliver doses of approximately 200 mg/kg, 75 mg/kg, 25 mg/kg, and 5 mg/kg in a 200 μL fixed dose volume. All dosing calculations assume a 25 g animal. NTNU's G-Block 70 mg/ml stock solution was formulated at the beginning of the study and used for dilutions before each dose, sterile filtered, and stored at 4° C. between doses. All unused dosing mixture was properly disposed of at TD2 after the study ended.
All unused dosing mixture was properly disposed of at TD2 after each dose.
Vehicle control was dosed with a solution of 0.9% 150 mM NaCl at a 10 ml/kg dose volume. Vehicle control was stored at room temperature.
Capan-2 human pancreas tumour xenograft cell line was received from ATCC (Manassas, Va.). Cultures were maintained in McCoy's 5A medium (Hyclone, Logan, Utah) supplemented with 10% fetal bovine serum (Omega Scientific; Tarzana, Calif.), and housed in a 5% CO2 atmosphere. The cultures were expanded in tissue culture flasks at a 1:5 split ratio until a sufficient amount of cells were harvested.
Female Athymic Nude mice (Hsd:Athymic Nude-Foxn1^nu) were supplied by Harlan (Germantown, N.Y.). Mice were received at 4 weeks of age. All mice were acclimated prior to handling. The mice were housed in microisolator cages (Lab Products, Seaford, Del.) and maintained under specific pathogen-free conditions. The mice were fed Tekland Global Diet® 2920× irradiated laboratory animal diet (Harlan, Indianapolis, Ind.) and autoclaved water was freely available. All procedures were carried out under the institutional guidelines of TGen Drug Development Institutional Animal Care and Use Committee (Protocol #13046).
Female mice were inoculated subcutaneously in the right flank with 0.1 mL of a 50% RPMI/50% Matrigel™ (BD Biosciences, Bedford, Mass.) mixture containing a suspension of Capan-2 tumor cells (approximately 5.0×10^6 cells/mouse). Seven days following inoculation, tumors were measured using calipers and tumor weight was calculated using the animal study management software, Study Director V.2.1.1 (Study Log)^1. Eighty mice with tumor sizes of 101-194 mg were randomized into eight groups of ten mice each by random equilibration with a mean of approximately 140 mg, using Study Director (Day 1). Body weights were recorded when the mice were randomized and were taken twice weekly thereafter in conjunction with tumor measurements. Dosing was performed as described below in Table 1.
All groups were terminated on Day 74. Mice were sacrificed prior to study end if tumor weight exceeded 1500 mg. Upon necropsy, tumors were excised from all animals in all groups and bisected in halves, placed in formalin vials (Azer Scientific/VWR; Franklin Lakes, N.J.) then fixed for approximately 24 hours before transferring to ethanol. Formalin-fixed tissues were embedded in paraffin, processed, and H & E stained.
The following concerns a statistical analysis of tumour weights in the study reported in Example 2. […] Tumour weight and body weights were assessed Day 1 and then twice weekly up to last assessment on Day 74.
Treatments were compared using an analysis of variance (ANOVA) model with fixed factor treatment and tumour weight at Day 1 as a covariate and assuming equal variance for each assessment (Day 1 model without covariate).

[1] = 0-19 days, label number = dose mg/kg, Q3Dx4
[2] = 0-29 days, label number = dose mg/kg, Q3Dx4
[3] = 0-39 days, label number = dose mg/kg, Q3Dx4
[4] = 0-50 days, label number = dose mg/kg, Q3Dx4
[5] = 0-60 days, label number = dose mg/kg, Q3Dx4
[6] = Day 1 (randomisation), label number = dose mg/kg
[7] = Day 4, label number = dose mg/kg
[8] = Day 8, label number = dose mg/kg
[9] = Day 11, label number = dose mg/kg
[10] = Day 16, label number = dose mg/kg
[11] = Day 19, label number = dose mg/kg
[12] = Day 22, label number = dose mg/kg
[13] = Day 25, label number = dose mg/kg
[14] = Day 29, label number = dose mg/kg
[15] = Day 32, label number = dose mg/kg
[16] = Day 36, label number = dose mg/kg
[17] = Day 39, label number = dose mg/kg
[18] = Day 43, label number = dose mg/kg
[19] = Day 46, label number = dose mg/kg
[20] = Day 50, label number = dose mg/kg
[21] = Day 53, label number = dose mg/kg
[22] = Day 57, label number = dose mg/kg
[23] = Day 60, label number = dose mg/kg
[24] = Day 64, label number = dose mg/kg
[25] = Day 67, label number = dose mg/kg
[26] = Day 71, label number = dose mg/kg
[27] = Day 74, label number = dose mg/kg

With Nc1ccn([C@@H]2O[C@H](CO)[C@@H](O)C2(F)F)c(=O)n1 [Gemcitabine 5, Gemcitabine] the “Eau, 0-19 (average tumour weight = AUC / interval length), Estimate” value [1] was 173.4 mg, the “Eau, 0-19, Difference vs Vehicle” value [1] was -67.6 mg and the “Eau, 0-29 (average tumour weight = AUC / interval length), Estimate” value [2] was 195.5 mg. For the same compound, the “Eau, 0-29, Difference vs Vehicle” value [2] was -93.6 mg, the “Eau, 0-39 (average tumour weight = AUC / interval length), Estimate” value [3] was 231.3 mg and the “Eau, 0-39, Difference vs Vehicle” value [3] was -118.1 mg. For the same compound, the “Eau, 0-50 (average tumour weight = AUC / interval length), Estimate” value [4] was 292.1 mg, the “Eau, 0-50, Difference vs Vehicle” value [4] was -121.2 mg and the “Eau, 0-60 (average tumour weight = AUC / interval length), Estimate” value [5] was 349.7 mg. The “Eau, 0-60, Difference vs Vehicle” value [5] was -118.4 mg, the “Consistent statistically significant effect versus Vehicle on tumour weight, up to Day” value (ANOVA by day) was ≤ 36 and the “Eav intervals with statistically significant effects versus Vehicle, up to” value (ANOVA of Eav) was “up to 50 days”. The “Tumour weight, Difference vs Vehicle” value [6] was -0.0 mg, the “Tumour weight, Estimate” value [6] was 140.7 mg and the “Estimate (mg), tumour weight geometric mean” value (from here on “Estimate (mg)”) (Day 1) was 138.6 mg. For the same compound, the “Ratio vs Vehicle” value (Day 1) was 1.00, the “Estimate (mg)” value (Day 4) was 186.7 mg and the “Tumour weight, Difference vs Vehicle” value [7] was 14.1 mg. For the same compound, the “Tumour weight, Estimate” value [7] was 189.8 mg, the “Estimate (mg)” value (Day 8) was 157.0 mg and the “Ratio vs Vehicle” value (Day 8) was 0.71. The “Tumour weight, Difference vs Vehicle” value [8] was -69.0 mg, the “Tumour weight, Estimate” value [8] was 161.6 mg and the “Estimate (mg)” value (Day 11) was 167.8 mg. The “Ratio vs Vehicle” value (Day 11) was 0.64, the “Tumour weight, Difference vs Vehicle” value [9] was -111.0 mg and the “Tumour weight, Estimate” value [9] was 174.2 mg. The “Estimate (mg)” value (Day 16) was 172.5 mg, the “Ratio vs Vehicle” value (Day 16) was 0.63 and the “Tumour weight, Difference vs Vehicle” value [10] was -116.3 mg. For the same compound, the “Tumour weight, Estimate” value [10] was 181.4 mg, the “Estimate (mg)” value (Day 19) was 185.1 mg and the “Ratio vs Vehicle” value (Day 19) was 0.64. For the same compound, the “Tumour weight, Difference vs Vehicle” value [11] was -119.5 mg, the “Tumour weight, Estimate” value [11] was 194.7 mg and the “Estimate (mg)” value (Day 22) was 216.1 mg. For the same compound, the “Ratio vs Vehicle” value (Day 22) was 0.67, the “Tumour weight, Difference vs Vehicle” value [12] was -122.5 mg and the “Tumour weight, Estimate” value [12] was 225.0 mg. The “Estimate (mg)” value (Day 25) was 233.4 mg, the “Ratio vs Vehicle” value (Day 25) was 0.64 and the “Tumour weight, Difference vs Vehicle” value [13] was -157.9 mg. The “Tumour weight, Estimate” value [13] was 244.0 mg, the “Estimate (mg)” value (Day 29) was 258.9 mg and the “Ratio vs Vehicle” value (Day 29) was 0.64. For the same compound, the “Tumour weight, Difference vs Vehicle” value [14] was -164.9 mg, the “Tumour weight, Estimate” value [14] was 273.6 mg and the “Estimate (mg)” value (Day 32) was 286.5 mg. For the same compound, the “Ratio vs Vehicle” value (Day 32) was 0.62, the “Tumour weight, Difference vs Vehicle” value [15] was -208.5 mg and the “Tumour weight, Estimate” value [15] was 310.1 mg. The “Estimate (mg)” value (Day 36) was 324.4 mg, the “Ratio vs Vehicle” value (Day 36) was 0.68 and the “Tumour weight, Difference vs Vehicle” value [16] was -190.3 mg. For the same compound, the “Tumour weight, Estimate” value [16] was 360.9 mg, the “Estimate (mg)” value (Day 39) was 349.9 mg and the “Ratio vs Vehicle” value (Day 39) was 0.78. For the same compound, the “Tumour weight, Difference vs Vehicle” value [17] was -165.4 mg, the “Tumour weight, Estimate” value [17] was 389.6 mg and the “Estimate (mg)” value (Day 43) was 439.5 mg. The “Ratio vs Vehicle” value (Day 43) was 0.84, the “Tumour weight, Difference vs Vehicle” value [18] was -138.1 mg and the “Tumour weight, Estimate” value [18] was 506.6 mg. The “Estimate (mg)” value (Day 46) was 460.6 mg, the “Ratio vs Vehicle” value (Day 46) was 0.86 and the “Tumour weight, Difference vs Vehicle” value [19] was -107.4 mg. For the same compound, the “Tumour weight, Estimate” value [19] was 536.4 mg, the “Estimate (mg)” value (Day 50) was 485.0 mg and the “Ratio vs Vehicle” value (Day 50) was 0.85. For the same compound, the “Tumour weight, Difference vs Vehicle” value [20] was -130.4 mg, the “Tumour weight, Estimate” value [20] was 573.5 mg and the “Estimate (mg)” value (Day 53) was 530.7 mg. For the same compound, the “Ratio vs Vehicle” value (Day 53) was 0.93, the “Tumour weight, Difference vs Vehicle” value [21] was -61.2 mg and the “Tumour weight, Estimate” value [21] was 653.0 mg. The “Estimate (mg)” value (Day 57) was 516.6 mg, the “Ratio vs Vehicle” value (Day 57) was 0.90 and the “Tumour weight, Difference vs Vehicle” value [22] was -144.3 mg. For the same compound, the “Tumour weight, Estimate” value [22] was 626.6 mg, the “Estimate (mg)” value (Day 60) was 539.6 mg and the “Ratio vs Vehicle” value (Day 60) was 1.00. For the same compound, the “Tumour weight, Difference vs Vehicle” value [23] was -84.5 mg, the “Tumour weight, Estimate” value [23] was 680.5 mg and the “Estimate (mg)” value (Day 64) was 633.3 mg. The “Tumour weight, Difference vs Vehicle” value [24] was 76.1 mg, the “Tumour weight, Estimate” value [24] was 869.5 mg and the “Estimate (mg)” value (Day 67) was 695.7 mg. For the same compound, the “Tumour weight, Difference vs Vehicle” value [25] was 85.1 mg, the “Tumour weight, Estimate” value [25] was 952.8 mg and the “Estimate (mg)” value (Day 71) was 746.4 mg. For the same compound, the “Tumour weight, Difference vs Vehicle” value [26] was 54.2 mg, the “Tumour weight, Estimate” value [26] was 1078.5 mg and the “Estimate (mg)” value (Day 74) was 746.3 mg. For the same compound, the “Ratio vs Vehicle” value (Day 74) was 1.33, the “Tumour weight, Difference vs Vehicle” value [27] was 157.2 mg and the “Tumour weight, Estimate” value [27] was 1009.1 mg. The “Estimated differences vs Vehicle in growth rates” value (exponential model y=C*exp(a*t), t in days, data up to 60 days, label number = dose mg/kg) was −0.0042 and the “Estimated differences between active treatments in growth rates, vs G-B 560” value (exponential model, data up to 60 days, contrast vs G-Block 560 mg/kg alone) was −0.0015.
